Legend:
[1] = Measurement of log P values by HPLC on reversed phase columns (EEC directive 79/831 Annex V.A8; methods [a] pH 2.3, [b] pH 2.7, [c] pH 7.8); format: physicochemical; settings: method [b]: LC-MS, pH 2.7, 0.1% formic acid in water / acetonitrile
Boophilus microplus = Boophilus microplus - Injectiontest (BOOPMI Inj); format: in vivo; settings: 20 μg/animal injected into adult engorged female ticks; after 7 days; 100% = all eggs infertile
Protocol: Boophilus microplus—Injectiontest (BOOPMI Inj)
(§1) Solvent: dimethyl sulfoxide
To produce a suitable preparation of active compound, 10 mg of active compound are dissolved in 0.5 ml solvent, and the concentrate is diluted with solvent to the desired concentration.
Five adult engorged female ticks (Boophilus microplus) are injected with 1 μl compound solution into the abdomen. Ticks are transferred into replica plates and incubated in a climate chamber.
After 7 days the egg deposition of fertile eggs is monitored. Eggs where fertility is not visible are stored in a climate chamber till hatching after about 42 days. An efficacy of 100% means all eggs are infertile; 0% means all eggs are fertile.

Cooperia curticei = format: in vivo; settings: 20 ppm; after 5 days; 100% = all larvae killed
Protocol: Cooperia curticei—Test (COOPCU)
as §1
To produce a suitable preparation of active compound, 10 mg of active compound are dissolved in 0.5 ml solvent, and the concentrate is diluted with “Ringer's solution” to the desired concentration.
Approximately 40 nematode larvae (Cooperia curticei) are transferred into a test tube containing the compound solution.
After 5 days percentage of larval mortality is recorded. 100% efficacy means all larvae are killed; 0% efficacy means no larvae are killed.

Meloidogyne incognita = Meloidogyne incognita - test (MELGIN); format: in vivo; settings: 20 ppm; salad seedlings in sand; after 14 days; 100% = no galls found
Protocol: Meloidogyne incognita—test (MELGIN)
Solvent: 125.0 parts by weight of acetone
To produce a suitable preparation of active compound, 1 part by weight of active compound is mixed with the stated amount of solvent, and the concentrate is diluted with water to the desired concentration.
Vessels are filled with sand, a solution of the active ingredient, a suspension containing eggs and larvae of the southern root-knot nematode (Meloidogyne incognita) and salad seeds. The salad seeds germinate and the seedlings grow. Galls develop in the roots.
After 14 days the nematicidal activity is determined on the basis of the percentage of gall formation. 100% means that no galls were found; 0% means the number of galls found on the roots of the treated plants was equal to that in untreated control plants.

Compound: COC(CNC(=O)c1nccnc1C(F)(F)F)c1ccc(Cl)cc1Cl (stereo not shown) [Compound 103]
- logP [1]: 3.35^[b]
- activity (efficacy: egg deposition of fertile eggs) (Boophilus microplus): 80%
- activity (efficacy: larval mortality) (Cooperia curticei): 90%
- nematicidal activity (percentage of gall formation) (Meloidogyne incognita): 90%

From patent US20160100579A1, “NEMATICIDAL N-(2-SUBSTITUTED 2-PHENYLETHYL)CARBOXAMIDES AND N-(2-SUBSTITUTED 2-PHENYLETHYL)-THIOCARBOXAMIDES” (priority 2013, published 2016)
